Reference: patent publication US20120003298A1, “METHODS FOR INDUCING AN IMMUNE RESPONSE” (priority 2010, published 2012)
Where two headings read alike, the source gives them in different places.

Assays:
[1] = Solubility observations in the text; conditions: methanol, ethanol, dichloromethane, ethyl acetate, acetonitrile, acetone, chloroform
[2] = Solubility, method of the European Pharmacopoeia 6.0; format: physicochemical
Description: The method reported in the European Pharmacopoeia 6.0 was used.
Batch CH730/16/8g was tested according to the method described in E. Ph: DMSO was added in 0.1 mL portions to 103.7 mg of product and the suspension was shaken with a Vortex instrument for 3 min after each addition.
The batches CH730/16/8c, CH730/16/8g and CH730/23/8e were then tested stirring each suspension for a longer time; 100 mg of each batch dissolved completely in 0.2 mL of DMSO after stirring for 30 minutes.

[3] = system: mouse macrophage cell line Raw264.7; test: IL-6 and TNF-alpha secretion in Raw264.7 cells (Model 1), ELISA; format: cell-based; conditions: for EC50: Raw 264.7, 24 hours, 7 doses
PBMCs = test: IL-6 and TNF-alpha secretion in PBMC model (Model 2), ELISA; format: cell-based, human; conditions: Homo sapiens, PBMC
[4] = Metabolic profiling in rabbit plasma, LC/MS/MS; format: in vitro ADME
Description: (§1) Before the analysis of the incubated samples, compound A was infused manually to understand parent fragmentation. Infusion was performed by diluting a 50 mM solution in DMSO to 1 μM with ACN/MeOH 1/1. Sample solution was infused into the ion trap source at a flow rate of 4 μl/min.
(§2) Incubated samples were analyzed on a HPLC (Waters) interfaced with an Ion Trap HCT ultra (Bruker Daltonics).
(§3) Assignment of the structures was done by comparison of the MS/MS analysis of the spectra with the parent spectrum.
(§4) Metabolic profiling was studied in rabbit and human plasma. In both matrixes the parent compound (50 uM starting concentration) was totally metabolized at the last time point. Metabolites were detected in Full scan and peaks were assigned by MH+ and MS/MS spectra.

[5] = Metabolic profiling in human plasma, LC/MS/MS; format: in vitro ADME
Description: as §1, §2, §3, §4

human whole blood = test: Cytokine secretion in human whole blood assay, ELISA; format: cell-based; conditions: Homo sapiens
Description: Before drawing the blood, the compounds were added to 96 well round bottom plates in a 10× diluted sample at 20 ul. The compounds were diluted in RPMI media without serum but with antibiotics. Antibiotics were added at a 10× concentration. After drawing the blood, the whole blood sample was gently mixed to obtain a homogeneous sample, and 180 ul was added to each well.
All compounds were setup in concentrations at 0-0.01-0.03-0.1-0.5-2.0-10.0 micromolar as the final concentration. Vehicle control was DMSO control, where we used the highest concentration used for the compounds. After addition of blood, all plates were gently agitated at 37° C. and 5% CO2 until harvest.
For the 6 hours time point, the plate was centrifuged 500×g. Supernatant (SN) was transferred to a tube and centrifuged at 10.000×g for 10 min to get rid of cells and protein aggregates. The clarified supernatant was frozen at −80° C. until analysis.
The SN was removed to another tube and centrifuged at 10.000×g for 10 min. to get rid of aggregates etc. The clarified supernatant was frozen at −80° C. until analysis.
Concentrations of cytokines were determined by ELISA from R&D Systems. The results were analyzed in Graph Pad Prism in order to prepare dose-response
curves, and for determination of EC50 values. FACS analysis was made by using Becton-Dickinson FACSDiva software and subsequently illustrated in Graph Pad Prism.

[6] = system: recombinant antigens from Plasmodium falciparum and Mycobacterium ulcerans; test: Pilot immunization study with adjuvanted recombinant protein antigens; format: in vivo, mouse; conditions: subcutaneous, 10 nMol
Description: A pilot immunization study was conducted using Compound A and SC12 adjuvanted protein antigens. The immunization experiments were performed with two recombinant proteins expressed in E. coli. One antigen was derived from the malaria parasite Plasmodium falciparum and the other one from Mycobacterium ulcerans, which cause the ulcerative skin disease Buruli ulcer.

RAW.264 cells = test: Intracellular uptake in RAW.264 cells, LC-MS; format: in vitro ADME; conditions: 10 microM
Description: 5×10^6 RAW.264 cells were adhered overnight in 10 cm tissue culture dishes. […] […] Supernatant (2 ml) and cells (pellets) were collected by trypsinization and frozen at […] for subsequent analysis by LC-MS.

[7] = Stability on storage by HPLC (solid or chloroform solution; temperature, light)
Description: At this point, a stability study was conducted on batch CH730/16/8g.
The samples were analyzed at t=0 and after 20 days.

human PBMCs = test: IL-6 secretion in human PBMCs, two batches of Compound A and SC12 (Example 4); format: cell-based; conditions: PBMCs, 10-1-0.1-0.01 micromolar
Description: PBMCs were purified from two donors and plated into 96 well plates at 2×10^5 cells/well in RPMI media including human 2% heat inactivated AB serum, glutamine, Pen-strep and β-mercaptoethanol. The cells were treated with TLR7 agonists for 24 h in 4 doses. The conditioned media was removed for ELISA analyses for IL-6, and the EC50 value determined for each compound and each batch.
All compounds were tested in four concentrations (10-1-0.1-0.01 micromolar).
Concentrations of IL-6 were determined by ELISA from R&D Systems using the Microsoft Excel software. The results were analyzed in Graph Pad Prism in order to prepare dose-response curves, and for determination of EC50 values.

HLA-DR+/CD20+ B cells = test: FACS, B cell activation in whole blood; format: cell-based, human; conditions: 24 hours; 2 and 10 uM
Description: B-cells: HLA-DR/CD20/CD40
The FACS staining was performed according to the manufacturer's instructions. Lysis of red blood cells was performed before FACS staining in order to minimize auto-florescence. To include as many B cells and DCs in the study as possible the FACS analyses were performed on 500,000 cells in total for each staining. […] The results of the individual analysis were present as Mean Fluorescence Intensity (MFI) values, for certain activation marker in a given gate setting, represent the actual cell subset. The isotype background values have been used to set the gates so that a maximum at 2% of unspecific stained cells could be found in the positive gates.
The analysis of expression of the activation marker CD40 on B cells was made on double positive HLA-DR (MHC class II) (P4 gate) and CD20 cells (B cell marker) (P8 gate).

[8] = system: myeloid CD11c+/CD123− DCs; test: FACS, myeloid DC activation in whole blood; format: cell-based, human; conditions: 24 hours; 0.1 and 0.5 uM
Description: The FACS analysis for donor 1 and donor 2 was made on another day than donor 3. The compound concentrations were as follows:
B cell activation: 2 and 10 uM mDC/pDC: 0.1 and 0.5 uM
The FACS analysis was used to identify whether the test compounds could induce activation of B cells, and two different subsets of dendritic cells, namely the myeloid CD11c+/CD123− DCs and the plasmacytoid CD11c−/CD123+DCs. The following markers were studied to identify the activation status of the different subsets:
The FACS staining was performed according to the manufacturer's instructions. Lysis of red blood cells was performed before FACS staining in order to minimize auto-florescence. To include as many B cells and DCs in the study as possible the FACS analyses were performed on 500,000 cells in total for each staining. A P1 gate was set only to include relevant cells on FSC vs. SSC (see FIGS. 12-15). The results of the individual analysis were present as Mean Fluorescence Intensity (MFI) values, for certain activation marker in a given gate setting, represent the actual cell subset. The isotype background values have been used to set the gates so that a maximum at 2% of unspecific stained cells could be found in the positive gates.
The analysis of myeloid DCs was based on HLA-DR+/CD11c+/CD123-cells, thus all analyzed cells was included in the HLA-DR+(P3) gate and CD11c+/CD123− (Q4) gate (see gates in FIGS. 13-15).

[9] = Intrabladder application, serum cytokines (Luminex) and histology; format: in vivo, mouse; conditions: day 0, 2 hour time point; intravesical about 207 nmoles in 50 μl
Description: Female C57BU6 mice were anesthetized with ketamine/xylazine. The 50 microliter formulated compounds were intravesically administered for twenty minutes at each treatment. The treatment schedule and doses are in Table 35 and 36, respectively. The levels of cytokines (IL-6, IL-12, and TNF-alpha) were determined by Luminex assay. Paraffin sections were prepared and H & E staining performed.

MB49 cells = test: Mouse bladder cancer model, intravesical treatment (Experiment 24); format: in vivo; conditions: Experiment 1; in Phosal 50, 50 microliters, 20 minutes; 2 h and 24 h
Description: A set of experiments was conducted with SC12 in various solutions, in a mouse bladder cancer model.
7-9 week old C57BU6 mice were implanted with 1×10^6 MB49 cells after 0.1% poly L lysine treatment on day 0. […] On day 11, mice were sacrificed and organs were harvested.

[10] = system: Cutaneous Squamous Cell Carcinoma (SCC) cell lines SCL-I, SCL-II, SCC-12, SCC-13; conditions: FIG. 11
Description: SCC cells are grown under standard conditions (10% FBS).
Time and dose dependency of effects on total cell numbers have been investigated by real-time cell analysis, which is based on continuous monitoring of electric conductance in microtiter wells (E-plates, Roche), which corresponds to the cell numbers. […] For these assays 4 cell lines may be used to obtain a representative overview on the effects on SCC cells.

[11] = system: AY-27 rat bladder cancer cell-line; test: Orthotopic rat bladder cancer model, intravesical instillation

With COCCOc1nc(N)c2[nH]c(=O)n(Cc3ccc(C(=O)O)cc3)c2n1 [Compound 7, 4-((6-amino-2-(2-methoxyethoxy)-8-oxo-7H-purin-9(8H)-yl)methyl)benzoic acid] the “solubility in common solvents” value [1] was “not soluble in most of the common solvents”.

With CCCCCCCC/C=C\CCCCCCCC(=O)OCC(COP(=O)(O)OCCNC(=O)c1ccc(Cn2c(=O)[nH]c3c(N)nc(OCCOC)nc32)cc1)OC(=O)CCCCCCC/C=C\CCCCCCCC (centres unmarked) [Compound A, 2-(4-((6-amino-2-(2-methoxyethoxy)-8-oxo-7H-purin-9(8H)-yl)methyl)benzamido)ethyl 2,3-bis(oleoyloxy)propyl phosphate] the “solubility in DMSO” value [2] was “soluble”, the solubility ([2]; chloroform, organic solvent or mixture, thermodynamic from solid) was 100 mg/mL and the solubility at 3 min ([2]; organic solvent or mixture, thermodynamic from solid, batch Ch730/16/8g, DMSO added in 0.1 mL portions, Vortex 3 min after each addition) was 259 mg/mL. For the same compound, the solubility at 30 min ([2]; organic solvent or mixture, thermodynamic from solid, three batches, 100 mg in 0.2 mL of DMSO after stirring for 30 minutes) was 500 mg/mL, the EC50 ([3]; Mus musculus, RAW264.7, read-out: EC 50 IL 6) was 6 nM and the EC50 ([3]; Mus musculus, RAW264.7, read-out: EC 50 TNF-alpha) was 9 nM. For the same compound, the EC50 (PBMCs; 24 hours, read-out: TNF-alpha secretion, Donor 1 MC50) was 644 nM, the EC50 (PBMCs; 24 hours, read-out: TNF-alpha secretion, Donor 2 MC50) was 665 nM and the EC50 (PBMCs; 24 hours, read-out: TNF-alpha secretion, Donor 3 MC50) was 639 nM. The EC50 (PBMCs; average of three donors, read-out: IL-6 secretion, Average EC50) was 485 nM, the EC50 (PBMCs; average of three donors, read-out: TNF-alpha secretion, Average EC50) was 650 nM and the “metabolism in plasma” value [4] was “highly metabolized by esterases”. For the same compound, the “metabolism in plasma” value [5] was “highly metabolized by esterases”, the EC50 (human whole blood; 6 h, read-out: EC50-IFN-alpha, 6 h Incubation, Donor 1, whole blood) was 1170 nM and the EC50 (human whole blood; 6 h, read-out: EC50-IFN-alpha, 6 h Incubation, Donor 2, whole blood) was 1840 nM. It also gave an EC50 (human whole blood; 6 h, read-out: EC50-IFN-alpha, 6 h Incubation, Donor 3, whole blood) of 1940 nM, an EC50 (human whole blood; 6 h, read-out: EC50-IL-6, 6 h Incubation, Donor 1, whole blood) of 940 nM and an EC50 (human whole blood; 6 h, read-out: EC50-IL-6, 6 h Incubation, Donor 2, whole blood) of 630 nM. For the same compound, the EC50 (human whole blood; 6 h, read-out: EC50-IL-6, 6 h Incubation, Donor 3, whole blood) was 520 nM, the EC50 (human whole blood; 6 h, read-out: EC50-IL-12, 6 h Incubation, Donor 1, whole blood, IL-12p40) was 2310 nM and the EC50 (human whole blood; 6 h, read-out: EC50-IL-12, 6 h Incubation, Donor 2, whole blood, IL-12p40) was 2090 nM. For the same compound, the EC50 (human whole blood; 6 h, read-out: EC50-IL-12, 6 h Incubation, Donor 3, whole blood, IL-12p40) was 3430 nM, the EC50 (human whole blood; 24 h, read-out: EC50-IFN-alpha, 24 h Incubation, Donor 1) was 240 nM and the EC50 (human whole blood; 24 h, read-out: EC50-IFN-alpha, 24 h Incubation, Donor 2) was 470 nM. It also gave an EC50 (human whole blood; 24 h, read-out: EC50-IFN-alpha, 24 h Incubation, Donor 3) of 350 nM, an EC50 (human whole blood; 24 h, read-out: EC50-IL-6, 24 h Incubation, Donor 1) of 520 nM and an EC50 (human whole blood; 24 h, read-out: EC50-IL-6, 24 h Incubation, Donor 2) of 320 nM. It also gave an EC50 (human whole blood; 24 h, read-out: EC50-IL-6, 24 h Incubation, Donor 3) of 290 nM, an EC50 (human whole blood; 24 h, read-out: EC50-IL-10, 24 h Incubation, Donor 1) of 1290 nM and an EC50 (human whole blood; 24 h, read-out: EC50-IL-10, 24 h Incubation, Donor 2) of 860 nM. For the same compound, the EC50 (human whole blood; 24 h, read-out: EC50-IL-10, 24 h Incubation, Donor 3) was 2280 nM, the EC50 (human whole blood; 24 h, whole blood, read-out: EC50-IL-12p40, 24 h Incubation, Donor 1) was 2870 nM and the EC50 (human whole blood; 24 h, whole blood, read-out: EC50-IL-12p40, 24 h Incubation, Donor 2) was 2740 nM. The EC50 (human whole blood; 24 h, whole blood, read-out: EC50-IL-12p40, 24 h Incubation, Donor 3) was 4030 nM, the “local side effects” value [6] was “No local side effects” and the “Intracellular Concentration % of total” value (RAW.264 cells; Incubation 1 hours) was 5.50 % of total. For the same compound, the “Intracellular Concentration % of total” value (RAW.264 cells; Incubation 6 hours) was 4.27 % of total, the “Intracellular Concentration % of total” value (RAW.264 cells; Incubation 16 hours) was 1.53 % of total and the “degradation” value ([7]; T>25° C. and in the presence of light) was “rapid degradation”. For the same compound, the “degradation of solid samples” value ([7]; batch CH730/16/8g, solid) was “almost completely degraded after few days” and the “stability” value ([7]; room temperature and/or in the presence of light) was “not a stable compound”.

COCCOc1nc(N)c2[nH]c(=O)n(Cc3ccc(C(=O)O)cc3)c2n1 [Free pharmacophore, reference compound] gave an EC50 ([3]; read-out: EC 50 TNF-alpha) of 707 nM.

With CC(C)Cn1cnc2c(N)nc3ccccc3c21 [Imiquimod, reference compound] the “potency as TLR7 agonist” value [3] was “weakest induction of IL-6 and TNF-alpha”, the “IL-6 induction” value (human PBMCs) was “only active in inducing IL-6 at the highest concentration (10 uM)” and the “CD40 expression on B cells (MFI, words)” value (HLA-DR+/CD20+ B cells) was “increased expression in all three donors”. The “CD80 expression in mDCs (MFI, words)” value [8] was “weak expression of CD80 in donor 1 and 2”, the “serum IL-12” value [9] was “elevated levels of IL-12” and the “serum IL-6 and TNF-alpha” value (MB49 cells) was “under the detection levels”. The “cell numbers, real-time cell analysis” value [10] was “reduced cell numbers”, the “toxicity” value ([11]; intravesical, day 2 and 5) was “No signs of toxicity” and the “Number of rat bladders Tumor free” value ([11]; of 14 per group) was 5. The “Number of rat bladders with pT2 Tumor” value ([11]; of 14 per group) was 9.
